“And” between values parts separate entries of the source, which are not always exact repeats. Equal entries are not always repeated. Inconclusive results and toxic doses are left out. Peptide text beside a SMILES is read from it. * marks the point of attachment. Cbz = O=C(OCc1ccccc1)*
Tested on: P388 leukemia ip, CD2F1 mice, survival T/C
Test: NCI In Vivo Anticancer Drug Screen. Data for tumor model P388 Leukemia (intraperitoneal) in CD2F1 (CDF1) mice
Settings: endpoint: median survival time, higher = longer survival
Summary of the method: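 Mice carrying the transplanted tumor received test compound or vehicle. Survival was recorded in each group, and the value is the treated-group measurement divided by that of the vehicle-treated control group.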

[1] = dose: 25.0 mg/kg/injection, schedule: Q01DX009 (ip), vehicle: Klucel (hydroxypropylcellulose) (HPC)
[2] = dose: 50.0 mg/kg/injection, schedule: Q01DX009 (ip), vehicle: Klucel (hydroxypropylcellulose) (HPC)
[3] = dose: 100.0 mg/kg/injection, schedule: Q01DX009 (ip), vehicle: Klucel (hydroxypropylcellulose) (HPC)
[4] = dose: 200.0 mg/kg/injection, schedule: Q01DX009 (ip), vehicle: Klucel (hydroxypropylcellulose) (HPC)
[5] = dose: 12.5 mg/kg/injection, schedule: Q04DX003 (ip), vehicle: saline with Tween-80
[6] = dose: 12.5 mg/kg/injection, schedule: Q01DX009 (ip), vehicle: saline
[7] = dose: 200.0 mg/kg/injection, schedule: Q01DX009 (ip), vehicle: saline
[8] = dose: 50.0 mg/kg/injection, schedule: Q01DX005 (ip), vehicle: Klucel (hydroxypropylcellulose) (HPC)
[9] = dose: 100.0 mg/kg/injection, schedule: Q01DX005 (ip), vehicle: Klucel (hydroxypropylcellulose) (HPC)
[10] = dose: 200.0 mg/kg/injection, schedule: Q01DX005 (ip), vehicle: Klucel (hydroxypropylcellulose) (HPC)

SMILES: O=[N+]([O-])c1cccc(N=Cc2ccc(N(CCCl)CCCl)cc2)c1
- T/C (dose: 50.0 mg/kg/injection, schedule: Q04DX003 (ip), vehicle: Klucel (hydroxypropylcellulose) (HPC)): 106 % of control
- T/C (dose: 100.0 mg/kg/injection, schedule: Q04DX003 (ip), vehicle: Klucel (hydroxypropylcellulose) (HPC)): 104 % of control
- T/C (dose: 200.0 mg/kg/injection, schedule: Q04DX003 (ip), vehicle: Klucel (hydroxypropylcellulose) (HPC)): 100 % of control

SMILES: O=S(=O)(N/N=C/c1ccccc1)c1ccccc1
- T/C [1]: 106 % of control
- T/C [2]: 97 % of control
- T/C [3]: 99 % of control
- T/C [4]: 106 % of control

SMILES: COC(=O)C(C)CP(=O)(OC)OC (configuration not stated)
- T/C (dose: 50.0 mg/kg/injection, schedule: Q01DX005 (ip), vehicle: saline): 99 % of control
- T/C (dose: 100.0 mg/kg/injection, schedule: Q01DX005 (ip), vehicle: saline): 97 % of control
- T/C (dose: 200.0 mg/kg/injection, schedule: Q01DX005 (ip), vehicle: saline): 99 % of control

SMILES: O=[N+]([O-])c1ccc(Sc2nc3ccccc3[nH]2)nc1
- T/C (dose: 50.0 mg/kg/injection, schedule: Q01DX009 (ip), vehicle: suspension in saline): 100 % of control
- T/C (dose: 100.0 mg/kg/injection, schedule: Q01DX009 (ip), vehicle: suspension in saline): 100 % of control
- T/C (dose: 200.0 mg/kg/injection, schedule: Q01DX009 (ip), vehicle: suspension in saline): 99 % of control

SMILES: Cc1cc(C)c(C(Cl)(Cl)Cl)c(C)c1Cl
- T/C (dose: 6.25 mg/kg/injection, schedule: Q04DX003 (ip), vehicle: saline with Tween-80): 104 % of control
- T/C (dose: 8.0 mg/kg/injection, schedule: Q04DX003 (ip), vehicle: saline with Tween-80): 90 % of control
- T/C (dose: 12.0 mg/kg/injection, schedule: Q04DX003 (ip), vehicle: saline with Tween-80): 100 % of control
- T/C (dose: 12.5 mg/kg/injection, schedule: Q01DX009 (ip), vehicle: saline sonified): 118 % of control
- T/C [5]: 118 % of control
- T/C (dose: 18.0 mg/kg/injection, schedule: Q04DX003 (ip), vehicle: saline with Tween-80): 113 % of control
- T/C (dose: 33.0 mg/kg/injection, schedule: Q01DX009 (ip), vehicle: saline sonified): 165 % of control
- T/C (dose: 50.0 mg/kg/injection, schedule: Q01DX009 (ip), vehicle: saline sonified): 150 % of control
- T/C (dose: 75.0 mg/kg/injection, schedule: Q01DX009 (ip), vehicle: saline sonified): 105 % of control

SMILES: O=c1ccnc2sccn12
- T/C (dose: 100.0 mg/kg/injection, schedule: Q01DX001 (ip), vehicle: saline): 109 % of control
- T/C (dose: 200.0 mg/kg/injection, schedule: Q01DX001 (ip), vehicle: saline): 116 % of control
- T/C (dose: 400.0 mg/kg/injection, schedule: Q01DX001 (ip), vehicle: saline): 101 % of control

SMILES: C/C(=N\N=C(\[Se])N(C)C)c1ccccn1
- T/C [5]: 106 % of control
- T/C (dose: 25.0 mg/kg/injection, schedule: Q04DX003 (ip), vehicle: saline with Tween-80): 106 % of control
- T/C (dose: 50.0 mg/kg/injection, schedule: Q04DX003 (ip), vehicle: saline with Tween-80): 106 % of control

SMILES: O=c1[nH]c(=O)n(-c2cccc3ccccc23)c(=O)n1-c1cccc2ccccc12
- T/C [2]: 100 % of control
- T/C [3]: 108 % of control
- T/C [4]: 105 % of control

SMILES: O=C(NNc1nc(CCl)cs1)c1ccccc1Cl
- T/C (dose: 12.5 mg/kg/injection, schedule: Q01DX009 (ip), vehicle: Klucel (hydroxypropylcellulose) (HPC)): 106 % of control
- T/C [1]: 103 % of control and 111 % of control
- T/C [2]: 103 % of control and 113 % of control
- T/C [3]: 103 % of control and 107 % of control
- T/C [4]: 94 % of control

SMILES: CC(NC(=O)C(CCCCN)N(C(=O)OCc1ccccc1)C(=O)OCc1ccccc1)C(=O)O (configuration not stated) (tested in a mixture with another compound)
- T/C (dose: 50.0 mg/kg/injection, schedule: Q01DX005 (ip), vehicle: suspension in saline): 111 % of control
- T/C (dose: 100.0 mg/kg/injection, schedule: Q01DX005 (ip), vehicle: suspension in saline): 111 % of control
- T/C (dose: 200.0 mg/kg/injection, schedule: Q01DX005 (ip), vehicle: suspension in saline): 110 % of control

SMILES: CCOC(=O)/C(C#N)=C/Nc1cc(C(=O)OCC)cc2c(OC)c(OC)ccc12
- T/C (dose: 12.5 mg/kg/injection, schedule: Q01DX009 (ip), vehicle: distilled water + Tween-80): 97 % of control
- T/C (dose: 25.0 mg/kg/injection, schedule: Q01DX009 (ip), vehicle: distilled water + Tween-80): 93 % of control
- T/C (dose: 50.0 mg/kg/injection, schedule: Q01DX009 (ip), vehicle: distilled water + Tween-80): 106 % of control
- T/C (dose: 100.0 mg/kg/injection, schedule: Q01DX009 (ip), vehicle: distilled water + Tween-80): 106 % of control
- T/C (dose: 200.0 mg/kg/injection, schedule: Q01DX009 (ip), vehicle: distilled water + Tween-80): 110 % of control

SMILES: O=C(NCCN1CCOCC1)Nc1ccc2c(c1)OCCOCCOCCOCCO2
- T/C (dose: 60.0 mg/kg/injection, schedule: Q01DX005 (ip), vehicle: saline): 105 % of control
- T/C (dose: 120.0 mg/kg/injection, schedule: Q01DX005 (ip), vehicle: saline): 102 % of control
- T/C (dose: 240.0 mg/kg/injection, schedule: Q01DX005 (ip), vehicle: saline): 99 % of control

SMILES: Nc1ncnc2c(C3OC(CO)C(O)C3O)[nH]nc12 (configuration not stated)
- T/C (dose: 1.25 mg/kg/injection, schedule: Q01DX009 (ip), vehicle: saline): 109 % of control
- T/C (dose: 2.5 mg/kg/injection, schedule: Q01DX009 (ip), vehicle: saline): 109 % of control
- T/C (dose: 5.0 mg/kg/injection, schedule: Q01DX009 (ip), vehicle: saline): 118 % of control
- T/C (dose: 5.56 mg/kg/injection, schedule: Q01DX009 (ip), vehicle: saline): 109 % of control
- T/C (dose: 6.25 mg/kg/injection, schedule: Q01DX009 (ip), vehicle: saline sonified): 104 % of control
- T/C (dose: 8.33 mg/kg/injection, schedule: Q01DX009 (ip), vehicle: saline): 90 % of control
- T/C (dose: 12.0 mg/kg/injection, schedule: Q01DX009 (ip), vehicle: saline sonified): 105 % of control
- T/C [6]: 122 % of control
- T/C (dose: 18.7 mg/kg/injection, schedule: Q01DX009 (ip), vehicle: saline): 90 % of control

SMILES: CCN(CCO)CC(O)Cn1cnc2c(N)ncnc21 (configuration not stated)
- T/C (dose: 60.0 mg/kg/injection, schedule: Q01DX005 (ip), vehicle: Klucel (hydroxypropylcellulose) (HPC)): 95 % of control
- T/C (dose: 120.0 mg/kg/injection, schedule: Q01DX005 (ip), vehicle: Klucel (hydroxypropylcellulose) (HPC)): 94 % of control
- T/C (dose: 240.0 mg/kg/injection, schedule: Q01DX005 (ip), vehicle: Klucel (hydroxypropylcellulose) (HPC)): 97 % of control

SMILES: [N-]=[N+]=C(S(=O)(=O)O)S(=O)(=O)O
- T/C (dose: 50.0 mg/kg/injection, schedule: Q01DX009 (ip), vehicle: saline): 107 % of control
- T/C (dose: 100.0 mg/kg/injection, schedule: Q01DX009 (ip), vehicle: saline): 112 % of control
- T/C [7]: 107 % of control
- T/C (dose: 400.0 mg/kg/injection, schedule: Q01DX009 (ip), vehicle: saline): 107 % of control

SMILES: COc1ccc(/C(C#N)=C/c2cc(OC)c(OC)c(OC)c2)cc1
- T/C [8]: 105 % of control
- T/C [9]: 97 % of control
- T/C [10]: 101 % of control

SMILES: O=C(NC(Cc1cnc[nH]1)C(=O)NC(Cc1ccc(O)cc1)C(=O)O)OCc1ccccc1 (stereo not drawn) (Cbz-His-Tyr-OH; configuration not given here)
- T/C [8]: 93 % of control
- T/C [9]: 95 % of control
- T/C [10]: 92 % of control

SMILES: CC(=O)N([Si](C)(C)C)[Si](C)(C)C
- T/C (dose: 6.25 mg/kg/injection, schedule: Q01DX009 (ip), vehicle: saline): 88 % of control and 96 % of control
- T/C [6]: 100 % of control and 109 % of control and 86 % of control
- T/C (dose: 25.0 mg/kg/injection, schedule: Q01DX009 (ip), vehicle: saline): 101 % of control and 86 % of control and 93 % of control
- T/C [7]: 100 % of control

SMILES: O=C(O)c1c(C(=O)O)c(C(=O)O)c(C(=O)O)c(C(=O)O)c1C(=O)O
- T/C (dose: 25.0 mg/kg/injection, schedule: Q01DX009 (ip), vehicle: water): 111 % of control
- T/C (dose: 50.0 mg/kg/injection, schedule: Q01DX009 (ip), vehicle: water): 106 % of control
- T/C (dose: 100.0 mg/kg/injection, schedule: Q01DX009 (ip), vehicle: water): 109 % of control
- T/C (dose: 200.0 mg/kg/injection, schedule: Q01DX009 (ip), vehicle: water): 101 % of control
